The IC50 is the concentration at which inhibition is half-maximal.

IC50 data for 22 compounds are collected here from patent US6596719B1 (Actelio Pharmaceuticals Ltd., priority 1999, dated 2003).

In assay [1] the target is T1, human recombinant ETA receptors (Homo sapiens, UniProt P25101).
T1 construct: expressed in transfected cells; host or cells: CHO cells (microsomal membranes)
T1 sequence (P25101 21-427): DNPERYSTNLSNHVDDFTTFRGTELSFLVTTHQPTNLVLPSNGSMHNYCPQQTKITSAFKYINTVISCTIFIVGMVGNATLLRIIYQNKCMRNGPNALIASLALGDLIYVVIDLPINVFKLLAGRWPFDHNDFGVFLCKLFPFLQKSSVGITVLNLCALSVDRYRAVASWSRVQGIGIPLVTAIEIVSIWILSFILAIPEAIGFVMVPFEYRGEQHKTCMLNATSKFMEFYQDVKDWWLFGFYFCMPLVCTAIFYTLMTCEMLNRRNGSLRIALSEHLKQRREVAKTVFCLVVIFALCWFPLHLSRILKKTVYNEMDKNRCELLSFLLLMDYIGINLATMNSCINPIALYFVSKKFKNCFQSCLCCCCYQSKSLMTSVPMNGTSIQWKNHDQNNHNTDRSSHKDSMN
The experiment in a line: Inhibition of endothelin binding to membranes from CHO cells carrying human ET receptors (ETA).

The target in assay [2] is T2, human recombinant ETB receptors (Homo sapiens, UniProt P24530).
T2 construct: expressed in transfected cells; host or cells: CHO cells (microsomal membranes)
T2 sequence (P24530 27-442): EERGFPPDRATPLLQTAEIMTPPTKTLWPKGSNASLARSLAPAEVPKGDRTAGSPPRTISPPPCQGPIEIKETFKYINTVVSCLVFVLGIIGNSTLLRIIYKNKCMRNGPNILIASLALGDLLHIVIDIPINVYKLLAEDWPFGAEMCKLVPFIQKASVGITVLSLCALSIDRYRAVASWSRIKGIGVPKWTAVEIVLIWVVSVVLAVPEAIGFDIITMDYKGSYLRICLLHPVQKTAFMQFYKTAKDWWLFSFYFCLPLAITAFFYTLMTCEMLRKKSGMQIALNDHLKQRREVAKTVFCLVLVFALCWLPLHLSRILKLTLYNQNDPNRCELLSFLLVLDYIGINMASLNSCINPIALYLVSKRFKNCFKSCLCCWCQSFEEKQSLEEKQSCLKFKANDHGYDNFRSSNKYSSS
The experiment in a line: Inhibition of endothelin binding to membranes from CHO cells carrying human ET receptors (ETB). The method, then:
1) Inhibition of Endothelin Binding to Membranes from CHO Cells Carrying Human ET Receptors:
For competition binding studies, membranes of CHO cells expressing human recombinant ETA or ETB receptors were used. Microsomal membranes from recombinant CHO cells were prepared and the binding assay made as previously described (Breu V., et al, FEBS Lett 1993; 334:210).
The assay was performed in 200 uL 50 mM Tris/HCl buffer, pH 7.4, including 25 mM MnCl2, 1 mM EDTA and 0.5% (w/v) BSA in polypropylene microtiter plates. […]. […] After two h, the membranes were filtered on, filterplates containing GF/C filters (Unifilterplates from Canberra Packard S. A. Zürich, Switzerland). To each well, 50 uL of scintillation cocktail was added (MicroScint 20, Canberra Packard S. A. Zürich, Switzerland) and the filter plates counted in a microplate counter (TopCount, Canberra Packard S. A. Zürich, Switzerland).
All the test compounds were dissolved, diluted and added in DMSO. […] […].

Setting [3] is: membranes of CHO cells expressing human recombinant ETA receptors, 8 pM [125I]ET-1, 2 h at 20° C.
Where [4] appears, read: membranes of CHO cells expressing human recombinant ETB receptors, 8 pM [125I]ET-1, 2 h at 20° C.

Read-outs that look alike come from different tables or passages of the source.

As for `COc1ccccc1Oc1c(NS(=O)(=O)c2ccc(C(C)(C)C)cc2)nc(C2CC2)nc1OCCNS(=O)(=O)c1ccc(C)cc1` [Example 41], the IC50 in assay [1] (setting [3]) was found to be 4.9 µM; in assay [2] (setting [4]) it was 0.299 µM.

Turning to `COc1ccccc1Oc1c(NS(=O)(=O)c2ccc(C(C)C)cn2)nc(N2CCOCC2)nc1OCCNS(=O)(=O)c1cccs1` [Example 42, 5-isopropyl-N-[6-(2-(2-thiophensulfonyl)-amino-ethoxy)-5-(o-methoxyphenoxy)-2-(N-morpholino)-4-pyrimidinyl]-2-pyridine sulfonamide], the IC50 in assay [1] (setting [3]) is 0.587 µM; in assay [2] (setting [4]) it was 0.099 µM.

Consider `CCS(=O)(=O)NCCOc1nc(C2CC2)nc(NS(=O)(=O)c2ccc(C(C)C)cn2)c1Oc1ccccc1OC` [Example 43, 5-i-propyl-N-[6-(2-ethanesulfonylamino-ethoxy)-5-(o-methoxyphenoxy)-2-cyclopropyl-pyrimidin-4-yl]-pyridine-2-sulfonamide], for which the IC50 is 0.075 µM in assay [1] and 0.376 µM in assay [2].

As for `CCS(=O)(=O)NCCOc1nc(C2CC2)nc(NS(=O)(=O)c2ccc(C(C)(C)C)cc2)c1Oc1ccccc1OC` [Example 44, 4-tert.-butyl-N-[6-(2-ethanesulfonylamino-ethoxy)-5-(o-methoxyphenoxy)-2-cyclopropyl-pyrimidin-4-yl]-benzene-sulfonamide], the IC50 came out at 0.119 µM in assay [1] (setting [3]) and 0.323 µM in assay [2] (setting [4]).

On to `COc1ccccc1Oc1c(NS(=O)(=O)c2ccc(C(C)C)cn2)nc(N2CCOCC2)nc1OCCNS(C)(=O)=O` [Example 45, 5-isopropyl-N-[6-(2-methanesulfonylamino-ethoxy)-5-(o-methoxyphenoxy)-2-(N-morpholino)-4-pyrimidinyl]-2-pyridine sulfonamide], for which the IC50 in assay [1] was 0.251 µM; in assay [2], 0.336 µM.

For `CCCS(=O)(=O)NCCOc1nc(N2CCOCC2)nc(NS(=O)(=O)c2ccc(C(C)C)cn2)c1Oc1ccccc1OC` [Example 46, 5-isopropyl-N-[6-(2-(1-propane)sulfonylamino-ethoxy)-5-(o-methoxyphenoxy)-2-(N-morpholino)-4-pyrimidinyl]-2-pyridine sulfonamide], the results for the IC50 in assay [1] (setting [3]) and in assay [2] (setting [4]) were 0.14 µM and 0.103 µM, respectively.

Regarding `CCCCS(=O)(=O)NCCOc1nc(C(F)(F)F)nc(NS(=O)(=O)c2ccc(C(C)C)cn2)c1Oc1ccccc1OC` [Example 49, 5-i.-propyl-N-[6-(2-butanesulfonylamino-ethoxy)-5-(o-methoxyphenoxy)-2-trifluoromethyl-4-pyrimidinyl]pyridine-2-sulfonamide], the IC50 in assay [1] came out at 1.03 µM; in assay [2], 0.274 µM.

With `COc1ccccc1Oc1c(NS(=O)(=O)c2ccc(C(C)(C)C)cc2)nc(-c2ccncc2)nc1OCCNS(=O)(=O)c1cccs1` [Example 51, 4-tert.-butyl-N-[6-(2-(thiophene-2-sulfonylamino)-ethoxy)-5-(o-methoxyphenoxy)-2-(4-pyridyl)-4-pyrimidinyl]-benzene-sulfonamide], the values for the IC50 in assay [1] and in assay [2] were 3.45 µM and 0.182 µM, respectively.

`COc1ccccc1Oc1c(NS(=O)(=O)c2ccc(C(C)C)cn2)nc(C(F)(F)F)nc1OCCNS(=O)(=O)c1cccs1` [Example 54, 5-i.-propyl-N-[6-(2-((2-thiophene)-sulfonylamino)-ethoxy)-5-(o-methoxyphenoxy)-2-trifluoromethyl-4-pyrimidinyl]pyridine-2-sulfonamide]: the IC50 in assay [1] was 2.41 µM; in assay [2] it was 0.603 µM.

As to `COc1ccccc1Oc1c(NS(=O)(=O)c2ccc(C)cn2)nc(N2CCOCC2)nc1OCCNS(=O)(=O)c1ccccc1` [Example 57, 5-methyl-N-[6-(2-(benzenesulfonylamino)-ethoxy)-5-(o-methoxyphenoxy)-2-(N-morpholino)-4-pyrimidinyl]-2-pyridine sulfonamide], the IC50 was determined as 1.62 µM in assay [1] and 0.208 µM in assay [2].

As for `COc1ccccc1Oc1c(NS(=O)(=O)c2ccc(C(C)(C)C)cc2)nc(C)nc1OCCNS(=O)(=O)c1cccs1` [Example 62, 4-tert.-butyl-N-[6-(2-(2-thiophenesulfonylamino)-ethoxy)-5-(o-methoxyphenoxy)-2-methyl-4-pyrimidinyl]-benzene sulfonamide], the values for the half-maximal inhibitory concentration (IC50) in assay [1] and in assay [2] were 0.443 µM and 0.163 µM, respectively.

Turning to `COc1ccccc1Oc1c(NS(=O)(=O)c2ccc(C(C)C)cn2)nc(-c2ncccn2)nc1OCCNS(=O)(=O)c1cccs1` [Example 68, 5-isopropyl-N-[6-(2-(2-thiophenesulfonylamino)-ethoxy)-5-(o-methoxyphenoxy)-2-(2-pyrimidinyl)-4-pyrimidinyl]-2-pyridine sulfonamide], the results for the IC50 in assay [1] and in assay [2] were 0.477 µM and 0.169 µM, respectively.

On to `COc1ccccc1Oc1c(NS(=O)(=O)c2ccc(C(C)C)cn2)nc(-c2ccncc2)nc1OCCNS(=O)(=O)c1cccs1` [Example 71], for which the IC50 in assay [1] stood at 0.508 µM; in assay [2], 0.231 µM.

On to `CCS(=O)(=O)NCCOc1nc(-c2ccncc2)nc(NS(=O)(=O)c2ccc(C(C)C)cn2)c1Oc1ccccc1OC` [Example 73], for which the IC50 was 0.233 µM in assay [1] and 0.542 µM in assay [2].

As for `COc1ccccc1Oc1c(NS(=O)(=O)c2ccc(C(C)C)cn2)nc(-c2ccncc2)nc1OCCNS(=O)(=O)C(F)(F)F` [Example 74], the figures for the concentration for half-maximal inhibition (IC50) in assay [1] and in assay [2] were 0.531 µM and 0.934 µM, respectively.

As for `CCS(=O)(=O)NCCOc1nc(-c2ccncc2)nc(NS(=O)(=O)c2ccc(C)cn2)c1Oc1ccccc1OC` [Example 77, 5-methyl-N-[6-(2-(ethanesulfonylamino)-ethoxy)-5-(o-methoxyphenoxy)-2-(4-pyridyl)-4-pyrimidinyl]-2-pyridine sulfonamide], the IC50 in assay [1] (setting [3]) amounted to 0.185 µM; in assay [2] (setting [4]), 5.4 µM.

Take `COc1ccccc1Oc1c(NS(=O)(=O)c2ccc(C)cn2)nc(-c2ccncc2)nc1OCCNS(C)(=O)=O` [Example 78, 5-methyl-N-[6-(2-(methanesulfonylamino)-ethoxy)-5-(o-methoxyphenoxy)-2-(4-pyridyl)-4-pyrimidinyl]-2-pyridine sulfonamide]: the IC50 is 0.627 µM in assay [1] and 5.46 µM in assay [2].

As to `CCS(=O)(=O)NCCCOc1nc(C2CC2)nc(NS(=O)(=O)c2ccc(C(C)(C)C)cc2)c1Oc1ccccc1OC` [Example 79], the values for the IC50 in assay [1] and in assay [2] were 0.037 µM and above 10 µM, respectively.

With `CCS(=O)(=O)NCCOc1nc(N2CCOCC2)nc(NS(=O)(=O)c2ccc(C(C)(C)C)cc2)c1Oc1ccccc1OC` [Example 81, 4-tert.-butyl-N-[6-(2-ethanesulfonylamino-ethoxy)-2-(N-morpholino)-5-(o-methoxyphenoxy)-pyrimidin-4-yl]-benzenesulfonamide], the figures for the IC50 in assay [1] and in assay [2] were 0.104 µM and 1.24 µM, respectively.

Take `CCS(=O)(=O)NCCOc1nc(N2CCN(C)CC2)nc(NS(=O)(=O)c2ccc(C(C)(C)C)cc2)c1Oc1ccccc1OC` [Example 82, 4-tert.-butyl-N-[6-(2-ethanesulfonylamino-ethoxy)-2-(N-(N′-methyl)-piperazinyl)-5-(o-methoxyphenoxy)-pyrimidin-4-yl]-benzene-sulfonamide]: the values for the IC50 in assay [1] and in assay [2] were 0.311 µM and 3.51 µM, respectively.

Take `CCS(=O)(=O)NCCCOc1nc(C2CC2)nc(NS(=O)(=O)c2ccc(C(C)C)cn2)c1Oc1ccccc1OC` [Example 91, 5-i.-propyl-N-[6-(3-(ethanesulfonylamino)-propoxy)-5-(o-methoxyphenoxy)-2-cyclopropyl-4-pyrimidinyl]-pyridine-2-sulfonamide]: the IC50 in assay [1] (setting [3]) came to 0.0455 µM; in assay [2] (setting [4]), 0.103 µM.

`CCCS(=O)(=O)NCCCOc1nc(C2CC2)nc(NS(=O)(=O)c2ccc(C(C)C)cn2)c1Oc1ccccc1OC` [Example 92, 5-i.-propyl-N-[6-(3-(propanesulfonylamino)-propoxy)-5-(o-methoxyphenoxy)-2-cyclopropyl-4-pyrimidinyl]-pyridine-2-sulfonamide]: the IC50 in assay [1] (setting [3]) was determined as 0.0821 µM; in assay [2] (setting [4]), 0.015 µM.
